Data published in patent US7115642B2, “Substituted diphenyl isoxazoles, pyrazoles and oxadiazoles useful for treating HCV infection” (priority 2003, dated 2006).

Legend:
[1] = Cytotoxicity assay (Cell Titer Glo); assay type: cell-based; details: human; 48 hr with compound, ATP-dependent Cell Titer Glo assay; read-out: IC50 in cytotoxicity assay (number of viable cells)
Method: Compounds 67, 167, 169, 13, 1, 145, 29, 119, 63, 31, 39, 103, 123, 121, 97, 129, 79, 111, 85, 89, 109, 127, 131, 95, 47, 57, 69, 165, 161, 163, 3, 137, 15, 141, 41, 53, 33, 113, 93, 105, 77, 91, 81, 83, 35, 27, 65, 7, 135, 51, 139, 51, 49, 143, 5, 149, 11, 37, 21, 45, 61, 75, 23, 125, 73, 43, 171 and 101 were tested in a cytotoxicity assay with liver cells including an HCV replicon (5-2 Luc cells, 9–13 cells or Huh-7 cells). In the assay, cells were seeded onto 96-well plates (approx. 7500 cells/well in a volume of 90 μl) and grown for 24 hr at 37° C. On day 2, various concentrations of test compound (in a volume of 10 μl) were added to the wells and the cells were grown for an additional 48 hr at 37° C. On day 4, an ATP-dependent R-Luciferase assay (Cell Titer Glo assay) was performed to determine the number of viable cells.

[2] = tested on: HCV replicon (5-2 Luc replicon-comprising cells); experiment: HCV replicon assay (luciferase); assay type: cell-based, Hepatitis C virus; details: Hepatitis C virus; 5-2 Luc replicon cells, luciferase readout; read-out: Replicon IC50
Summary of the method: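 Huh7-derived 5-2 Luc replicon cells seeded 24 h at 37 °C, then exposed to compound at various concentrations for another 24 h. Luciferase quantified by Bright-Glo luminescence; IC50 = concentration giving 50% reduction in luciferase activity; reported as +/− at a 10 μM cut-off.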

Row | Structure (SMILES) | IC50 at 48 h [1] [µM] | IC50 [2] [µM]
1 | O=C(O)c1ccc(Cl)c(-c2cc(-c3cccc(NC(=O)C(Cl)Cl)c3)on2)c1Cl [Compound 139, 2,2-Dichloro-N-[3-[3-(3-carboxy-2,6-dichlorophenyl)-5-isoxazolyl]phenyl]Acetamide] | > 10 | > 10
2 | O=C(Nc1cccc(-c2cc(-c3c(C4CCCC4)cccc3C(F)(F)F)no2)c1)C(Cl)Cl [Compound 105, 2,2-Dichloro-N-[3-[3-(2-cyclopentyl-6-trifluoromethylphenyl)-5-isoxazolyl]phenyl]Acetamide] | > 5 | < 10
3 | O=C(Nc1cccc(-c2cc(-c3c(F)cccc3C(F)(F)F)no2)c1)C(Cl)Cl [Compound 41, 2,2-Dichloro-N-[3-[3-(2-fluoro-6-trifluoromethylphenyl)-5-isoxazolyl]phenyl]Acetamide] | > 10 | < 10
4 | Cc1cc(C)c(-c2cc(-c3cccc(NC(=O)C(Cl)Cl)c3)on2)c(C)c1 [Compound 69, 2,2-Dichloro-N-[3-[3-(2,4,6-trimethylphenyl)-5-isoxazolyl]phenyl]Acetamide] | 3 | < 10
5 | COc1ccc(NC(=O)C(Cl)Cl)cc1-c1cc(-c2c(Cl)cccc2Cl)no1 [Compound 127, 2,2-Dichloro-N-[3-[3-(2,6-dichlorophenyl)-5-isoxazolyl]4-methoxyphenyl]Acetamide] | > 10 | < 10
6 | O=C(Nc1cccc(-c2cc(-c3c(O)cccc3C(F)(F)F)no2)c1)C(Cl)Cl [Compound 35, 2,2-Dichloro-N-[3-[3-(2-hydroxy-6-trifluoromethylphenyl)-5-isoxazolyl]phenyl]Acetamide] | > 10 | < 10
7 | COc1cccc(F)c1-c1cc(-c2cccc(NC(=O)C(Cl)Cl)c2)on1 [Compound 43, 2,2-Dichloro-N-[3-[3-(2-fluoro-6-methoxyphenyl)-5-isoxazolyl]phenyl]Acetamide] | > 10 | < 10
8 | COc1cccc(Cl)c1-c1cc(-c2cccc(NC(=O)C(Cl)Cl)c2)on1 [Compound 81, 2,2-Dichloro-N-[3-[3-(2-chloro-6-methoxyphenyl)-5-isoxazolyl]phenyl]Acetamide] | > 10 | < 10
9 | O=C(Nc1cccc(-c2cc(-c3c(Cl)cccc3Cl)no2)c1)C(Br)Br [Compound 29, 2,2-Dibromo-N-[3-[3-(2,6-dichlorophenyl)-5-isoxazolyl]phenyl]Acetamide] | > 10 | < 10
10 | Cc1cccc(C(F)(F)F)c1-c1cc(-c2cccc(NC(=O)C(Cl)Cl)c2)on1 [Compound 85, 2,2-Dichloro-N-[3-[3-(2-methyl-6-trifluoromethylphenyl)-5-isoxazolyl]phenyl]Acetamide] | > 10 | < 10
11 | O=C(Nc1cccc(-c2cc(-c3ccccc3C3CCCC3)no2)c1)C(Cl)Cl [Compound 129, 2,2-Dichloro-N-[3-[3-(2-cyclopentylphenyl)-5-isoxazolyl]phenyl]Acetamide] | > 10 | < 10
12 | O=C(Nc1cccc(-c2cc(-c3ccccc3C(F)(F)F)no2)c1)C(Cl)Cl [Compound 33, 2,2-Dichloro-N-[3-[3-(2-trifluoromethylphenyl)-5-isoxazolyl]phenyl]Acetamide] | > 10 | < 10
13 | O=C(Nc1cccc(-c2cc(-c3c(O)cccc3Cl)no2)c1)C(Cl)Cl [Compound 83, 2,2-Dichloro-N-[3-[3-(2-chloro-6-hydroxyphenyl)-5-isoxazolyl]phenyl]Acetamide] | > 10 | < 10
14 | Cc1cccc(C)c1-c1cc(-c2cccc(NC(=O)C(Cl)Cl)c2)on1 [Compound 47, 2,2-Dichloro-N-[3-[3-(2,6-dimethylphenyl)-5-isoxazolyl]phenyl]Acetamide] | > 5 | < 10
15 | O=C(Nc1cccc(-c2cc(-c3ccccc3OC(F)F)no2)c1)C(Cl)Cl [Compound 45, 2,2-Dichloro-N-[3-[3-(2-difluoromethoxyphenyl)-5-isoxazolyl]phenyl]Acetamide] | > 10 | < 10
16 | O=C(Nc1cccc(-c2cc(-c3ccccc3OC(F)(F)F)no2)c1)C(Cl)Cl [Compound 113, 2,2-Dichloro-N-[3-[3-(2-trifluoromethoxyphenyl)-5-isoxazolyl]phenyl]Acetamide] | > 10 | < 10
17 | COc1cccc(C)c1-c1cc(-c2cccc(NC(=O)C(Cl)Cl)c2)on1 [Compound 91, 2,2-Dichloro-N-[3-[3-(2-methoxy-6-methylphenyl)-5-isoxazolyl]phenyl]Acetamide] | > 10 | < 10
18 | O=C(Nc1cccc(-c2cc(-c3c(F)ccc(F)c3Cl)no2)c1)C(Cl)Cl [Compound 53, 2,2-Dichloro-N-[3-[3-(2-chloro-3,6-difluorophenyl)-5-isoxazolyl]phenyl]Acetamide] | > 10 | < 10
19 | O=C(Nc1cccc(-c2cc(-c3c(Cl)cccc3C3CC3)no2)c1)C(Cl)Cl [Compound 79, 2,2-Dichloro-N-[3-[3-(2-chloro-6-cyclopropylphenyl)-5-isoxazolyl]phenyl]Acetamide] | > 10 | < 10
20 | CC(C)c1cccc(C(F)(F)F)c1-c1cc(-c2cccc(NC(=O)C(Cl)Cl)c2)on1 [Compound 93, 2,2-Dichloro-N-[3-[3-(2-isopropyl-6-trifluoromethylphenyl)-5-isoxazolyl]phenyl]Acetamide] | > 10 | < 10
21 | CC(C)c1cccc(Cl)c1-c1cc(-c2cccc(NC(=O)C(Cl)Cl)c2)on1 [Compound 39, 2,2-Dichloro-N-[3-[3-(2-chloro-6-isopropylphenyl)-5-isoxazolyl]phenyl]Acetamide] | > 10 | < 10
22 | Cc1c(NC(=O)C(Cl)Cl)cccc1-c1cc(-c2c(Cl)cccc2Cl)no1 [Compound 167, 2,2-Dichloro-N-[3-[3-(2,6-dichlorophenyl)-5-isoxazolyl]-2-methylphenyl]Acetamide] | > 10 | > 10
23 | CCCCc1cccc(Cl)c1-c1cc(-c2cccc(NC(=O)C(Cl)Cl)c2)on1 [Compound 103, 2,2-Dichloro-N-[3-[3-(2-chloro-6-n-butylphenyl)-5-isoxazolyl]phenyl]Acetamide] | > 10 | < 10
24 | Cc1cccc(Cl)c1-c1cc(-c2cccc(NC(=O)C(Cl)Cl)c2)on1 [Compound 31, 2,2-Dichloro-N-[3-[3-(2-chloro-6-methylphenyl)-5-isoxazolyl]phenyl]Acetamide] | > 10 | < 10
25 | O=C(Nc1cccc(-c2cc(-c3c(Cl)cccc3Cl)no2)c1)C(F)F [Compound 145, 2,2-Difluoro-N-[3-[3-(2,6-dichlorophenyl)-5-isoxazolyl]phenyl]Acetamide] | > 10 | > 10
26 | O=C(Nc1cccc(-c2cc(-c3c(Cl)cccc3C3CCCC3)no2)c1)C(Cl)Cl [Compound 97, 2,2-Dichloro-N-[3-[3-(2-chloro-6-cyclopentylphenyl)-5-isoxazolyl]phenyl]Acetamide] | > 10 | < 10
27 | O=C(Nc1cccc(-c2cc(-c3c(C4CC4)cccc3C(F)(F)F)no2)c1)C(Cl)Cl [Compound 89, 2,2-Dichloro-N-[3-[3-(2-cyclopropyl-6-trifluoromethylphenyl)-5-isoxazolyl]phenyl]Acetamide] | > 10 | < 10
28 | Cc1ccc(Cl)c(-c2cc(-c3cccc(NC(=O)C(Cl)Cl)c3)on2)c1F [Compound 51, 2,2-Dichloro-N-[3-[3-(6-chloro-2-fluoro-3-methylphenyl)-5-isoxazolyl]phenyl]Acetamide] | > 10 | < 10
